Data from PubChem BioAssay (NCI).
“And” between values parts separate entries of the source, which are not always exact repeats. Identical values can stand only once.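 All cell lines were grown in 96-well plates and treated with compound for 48 hours. At the GI50, growth is halved. The concentration for full growth arrest is given as TGI.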

What was measured:
Experiment in all cases: inhibition of tumour cell growth, NCI panel, 48 h
ACHN renal = tested on: ACHN renal
CAKI-1 renal = tested on: CAKI-1 renal
DLD-1 colon = tested on: DLD-1 colon
HOP-62 NSCLC = tested on: HOP-62 NSCLC
RPMI-8226 leukemia = tested on: RPMI-8226 leukemia
SF-268 CNS = tested on: SF-268 CNS
SK-MEL-2 melanoma = tested on: SK-MEL-2 melanoma
SK-OV-3 ovarian = tested on: SK-OV-3 ovarian
SN12C renal = tested on: SN12C renal
SNB-78 CNS = tested on: SNB-78 CNS

Structure (SMILES)	TGI (ACHN renal)	TGI (CAKI-1 renal)	TGI (DLD-1 colon)	TGI (HOP-62 NSCLC)	TGI (RPMI-8226 leukemia)	TGI (SF-268 CNS)	TGI (SK-MEL-2 melanoma)	TGI (SK-OV-3 ovarian)	TGI (SN12C renal)	TGI (SNB-78 CNS)	GI50 (ACHN renal)	GI50 (CAKI-1 renal)	GI50 (DLD-1 colon)	GI50 (HOP-62 NSCLC)	GI50 (RPMI-8226 leukemia)	GI50 (SF-268 CNS)	GI50 (SK-MEL-2 melanoma)	GI50 (SK-OV-3 ovarian)
COc1cc(O)c(C(=O)CC(C)=O)c(OC)c1	> 100 µM	> 100 µM	> 100 µM	> 100 µM	> 100 µM	> 100 µM	> 100 µM	> 100 µM	> 100 µM	> 100 µM	–	–	–	–	–	–	–	–
Cn1cnc([N+](=O)[O-])c1Sc1nnnn1C	30.5 µM	31.8 µM	29.5 µM	> 100 µM	> 100 µM	50.2 µM	37.3 µM	> 100 µM	32.1 µM	30.2 µM	–	–	–	–	–	–	–	–
CN(C)C(=S)/N=c1\ssc(=S)n1Cc1cccs1	> 100 µM	> 91.4 µM	> 100 µM	81.3 µM	> 100 µM	> 100 µM	25.7 µM	> 90 µM	> 100 µM	> 100 µM	–	–	–	–	–	–	–	–
C#CCN(N=O)C(=O)NCCCCC(NC(=O)OCc1ccccc1)C(=O)OCc1ccccc1 (stereo not drawn)	> 100 µM	56.6 µM	85.2 µM	> 100 µM	> 100 µM	73.5 µM	> 100 µM	> 100 µM	> 100 µM	> 100 µM	–	–	–	–	–	–	–	–
O=C(N/C(=C\c1c(O)ccc2ccccc12)c1nc2ccccc2[nH]1)c1ccccc1	> 100 µM	> 100 µM	> 100 µM	76.1 µM	> 100 µM	> 100 µM	> 100 µM	> 100 µM	> 100 µM	> 100 µM	–	–	–	–	–	–	–	–
CSC(=Nc1ccccc1Cl)NC(=O)c1ccc(Br)cc1	> 100 µM	97.4 µM	> 100 µM	55.3 µM	> 100 µM	> 100 µM	> 100 µM	> 100 µM	> 100 µM	88.6 µM	–	–	–	–	–	–	–	–
COC1CC(C)C(OC)c2cc(O)cc(c2O)NC(=O)/C(C)=C/C=C\C(C)C(OC(N)=O)/C(C)=C\C(C)C1OC (stereo not drawn)	12.6 µM and 13.2 µM	16.3 µM and 14.4 µM	10.5 µM and 11.2 µM	36.9 µM and 12.2 µM	32.4 µM and 5.93 µM	21.1 µM and 11 µM	16 µM and 11.9 µM	8.02 µM and 14.7 µM	15.1 µM and 8.7 µM	18.3 µM	6.71 µM	6.93 µM and 7.45 µM	4.65 µM and 5.28 µM	0.413 µM	0.174 µM and 0.383 µM	0.693 µM and 0.279 µM	0.683 µM and 1.16 µM	0.171 µM
CCN(CCCl)CCCCCNc1c2ccccc2nc2ccc(OC)cc12	3.09 µM	16.7 µM	2.95 µM	8.38 µM	1.47 µM	5.98 µM	2.7 µM	3.62 µM	1.78 µM	8.57 µM	–	–	–	–	–	–	–	–
